Results on six compounds are retold here after the supplement of paper PMC12076712.

A value given as a limit tells only on which side of the number the result lay.

What all share (test): pIC50, kinobeads binding competition
One experiment addresses T1, UniProt P35626.
T1 sequence (whole entry): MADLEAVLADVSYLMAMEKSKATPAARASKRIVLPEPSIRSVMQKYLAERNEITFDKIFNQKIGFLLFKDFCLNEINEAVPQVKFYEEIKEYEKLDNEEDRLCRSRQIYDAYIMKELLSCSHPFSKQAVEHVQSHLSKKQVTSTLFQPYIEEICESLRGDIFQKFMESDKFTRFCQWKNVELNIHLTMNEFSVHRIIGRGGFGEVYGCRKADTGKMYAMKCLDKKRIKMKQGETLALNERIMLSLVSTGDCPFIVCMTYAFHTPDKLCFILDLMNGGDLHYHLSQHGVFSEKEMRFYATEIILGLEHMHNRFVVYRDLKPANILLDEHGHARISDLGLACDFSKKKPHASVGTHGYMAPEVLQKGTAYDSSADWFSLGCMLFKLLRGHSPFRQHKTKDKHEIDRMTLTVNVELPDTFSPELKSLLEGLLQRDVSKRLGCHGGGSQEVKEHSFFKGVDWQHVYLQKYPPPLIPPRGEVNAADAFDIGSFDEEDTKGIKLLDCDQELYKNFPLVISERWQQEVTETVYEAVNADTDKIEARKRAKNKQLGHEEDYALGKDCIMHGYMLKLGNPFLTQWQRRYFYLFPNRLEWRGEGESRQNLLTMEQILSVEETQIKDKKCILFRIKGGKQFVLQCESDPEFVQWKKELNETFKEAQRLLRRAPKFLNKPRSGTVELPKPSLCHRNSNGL
In outline: (§1)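 pIC50 was obtained by fitting fold changes against vehicle to logistic dose-response curves with the R drc package, using biological duplicates. Kinobeads-bound proteins were digested and measured by TMT10 LC-MS/MS. Before this, either living Jurkat cells received nine compound concentrations (top 30 μM, 1:4 steps) for 60 min at 37 °C prior to lysis, or Jurkat lysate or a 1:1:1:1 HEK293/K-562/HepG2/placenta lysate mix received nine concentrations (top 30 μM, 1:5 steps) for 60 min at 4 °C.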

For another experiment, the target named is T2, GAK (UniProt O14976).
T2 sequence (whole entry): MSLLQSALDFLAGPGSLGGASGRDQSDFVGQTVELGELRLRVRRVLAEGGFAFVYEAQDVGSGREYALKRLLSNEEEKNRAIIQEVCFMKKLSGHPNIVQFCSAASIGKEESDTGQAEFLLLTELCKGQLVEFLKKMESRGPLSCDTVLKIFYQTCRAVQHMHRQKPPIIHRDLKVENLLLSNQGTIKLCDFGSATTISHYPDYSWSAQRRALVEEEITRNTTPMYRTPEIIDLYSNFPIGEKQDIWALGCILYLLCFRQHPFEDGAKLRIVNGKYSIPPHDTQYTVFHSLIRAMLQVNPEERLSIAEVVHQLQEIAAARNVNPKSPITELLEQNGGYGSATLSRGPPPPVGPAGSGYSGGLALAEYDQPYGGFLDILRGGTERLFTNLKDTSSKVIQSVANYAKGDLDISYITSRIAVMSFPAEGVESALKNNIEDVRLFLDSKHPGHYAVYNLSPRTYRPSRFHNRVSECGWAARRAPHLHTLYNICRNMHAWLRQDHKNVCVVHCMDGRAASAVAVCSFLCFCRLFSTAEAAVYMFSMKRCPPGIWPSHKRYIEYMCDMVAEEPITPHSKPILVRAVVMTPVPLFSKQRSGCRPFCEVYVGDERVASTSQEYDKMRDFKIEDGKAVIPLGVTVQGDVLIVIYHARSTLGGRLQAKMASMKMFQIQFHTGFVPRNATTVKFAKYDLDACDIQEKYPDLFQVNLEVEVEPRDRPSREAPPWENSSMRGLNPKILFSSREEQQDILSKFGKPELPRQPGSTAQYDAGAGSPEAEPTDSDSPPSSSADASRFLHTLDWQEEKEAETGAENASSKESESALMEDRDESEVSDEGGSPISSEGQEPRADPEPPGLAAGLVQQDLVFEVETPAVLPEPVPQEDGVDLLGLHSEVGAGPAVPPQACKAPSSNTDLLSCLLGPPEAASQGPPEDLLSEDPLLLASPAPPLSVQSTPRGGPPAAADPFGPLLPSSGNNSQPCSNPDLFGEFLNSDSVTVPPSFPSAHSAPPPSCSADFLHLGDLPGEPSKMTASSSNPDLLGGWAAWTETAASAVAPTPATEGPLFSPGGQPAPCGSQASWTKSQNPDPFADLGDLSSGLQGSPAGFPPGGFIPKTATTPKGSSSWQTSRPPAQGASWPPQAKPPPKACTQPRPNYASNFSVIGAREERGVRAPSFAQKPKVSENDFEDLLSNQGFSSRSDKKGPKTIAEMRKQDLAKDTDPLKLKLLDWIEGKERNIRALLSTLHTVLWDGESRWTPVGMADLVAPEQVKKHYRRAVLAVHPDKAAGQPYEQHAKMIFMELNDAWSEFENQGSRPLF
In outline: as §1

Another experiment deals with UniProt O94804. In outline:
as §1

Sequence of UniProt O94804 (O94804 whole entry, looked up): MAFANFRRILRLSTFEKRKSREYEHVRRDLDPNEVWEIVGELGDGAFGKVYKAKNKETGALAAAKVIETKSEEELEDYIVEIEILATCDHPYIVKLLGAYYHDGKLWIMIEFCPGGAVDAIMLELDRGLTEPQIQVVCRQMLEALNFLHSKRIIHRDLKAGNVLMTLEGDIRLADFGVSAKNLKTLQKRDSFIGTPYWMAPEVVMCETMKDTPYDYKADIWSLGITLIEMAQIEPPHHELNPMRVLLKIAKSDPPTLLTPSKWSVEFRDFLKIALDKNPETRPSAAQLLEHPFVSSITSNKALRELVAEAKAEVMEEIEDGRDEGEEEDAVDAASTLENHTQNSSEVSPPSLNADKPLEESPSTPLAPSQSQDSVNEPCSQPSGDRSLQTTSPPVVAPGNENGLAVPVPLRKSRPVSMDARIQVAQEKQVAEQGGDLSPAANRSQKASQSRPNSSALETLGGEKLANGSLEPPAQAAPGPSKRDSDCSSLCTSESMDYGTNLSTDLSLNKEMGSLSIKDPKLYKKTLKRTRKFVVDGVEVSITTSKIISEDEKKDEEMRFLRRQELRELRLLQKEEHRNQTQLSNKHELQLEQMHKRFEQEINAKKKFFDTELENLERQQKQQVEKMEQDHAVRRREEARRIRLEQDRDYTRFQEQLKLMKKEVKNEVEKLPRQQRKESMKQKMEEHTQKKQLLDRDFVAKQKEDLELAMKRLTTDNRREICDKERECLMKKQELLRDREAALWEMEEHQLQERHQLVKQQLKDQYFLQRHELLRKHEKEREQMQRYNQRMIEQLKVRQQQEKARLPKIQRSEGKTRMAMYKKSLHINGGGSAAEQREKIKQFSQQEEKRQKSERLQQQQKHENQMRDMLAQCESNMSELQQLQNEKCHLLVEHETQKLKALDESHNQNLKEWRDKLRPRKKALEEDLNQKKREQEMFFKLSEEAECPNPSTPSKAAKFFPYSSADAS

Usually pIC50 stands for the negative decadic logarithm of the IC50, by convention in mol/L. Low readings indicate a large IC50, high ones a small IC50. Turning to `O=C(NCCNC(=O)c1cc(Nc2cc(C3CC3)[nH]n2)nc(N2CCN(Cc3ccc(S(=O)(=O)F)cc3)CC2)n1)OC1CC/C=C/CCC1` (stereo not drawn), the pIC50 on UniProt P35626 (cell material: Jurkat lysate), at UniProt P35626 (cell material: Lysate mix), on GAK (cell material: Jurkat cells), on GAK (cell material: Jurkat lysate), on GAK (cell material: Lysate mix) and on UniProt O94804 (cell material: Jurkat cells) was less than 4.52 in each case. For the same compound, the pIC50 on UniProt O94804 (cell material: Jurkat lysate) and at UniProt O94804 (cell material: Lysate mix) was less than 4.52 each time.

As to `Cc1cc(Nc2cc(C(=O)NCCNC(=O)OC3CC/C=C/CCC3)nc(N3CCN(Cc4ccc(S(=O)(=O)F)cc4)CC3)n2)n[nH]1` (stereo not drawn), the pIC50 at UniProt P35626 (cell material: Lysate mix), at GAK (cell material: Lysate mix) and on UniProt O94804 (cell material: Lysate mix) was less than 4.52 each time.

For `CCNC(=O)c1cc(Nc2cc(C)[nH]n2)nc(N2CCN(Cc3ccc(S(=O)(=O)F)cc3)CC2)n1`, the pIC50 at UniProt P35626 (cell material: Lysate mix), on GAK (cell material: Lysate mix) and at UniProt O94804 (cell material: Lysate mix) was less than 4.52 each time.

As to `C#CCNC(=O)c1cc(Nc2cc(C3CC3)[nH]n2)nc(N2CCN(Cc3ccc(S(=O)(=O)F)cc3)CC2)n1`, the pIC50 at UniProt P35626 (cell material: Jurkat cells) was 5.77; on UniProt P35626 (cell material: Jurkat lysate), less than 4.52; on GAK (cell material: Jurkat cells) it was less than 4.52; on GAK (cell material: Jurkat lysate) it was less than 4.52; at GAK (cell material: Lysate mix), less than 4.52; on UniProt O94804 (cell material: Jurkat cells), 5.04. The pIC50 on UniProt O94804 (cell material: Jurkat lysate) and on UniProt O94804 (cell material: Lysate mix) was less than 4.52 throughout.

Consider `C#CCNC(=O)c1cc(Nc2cc(C)[nH]n2)nc(N2CCN(Cc3ccc(S(=O)(=O)F)cc3)CC2)n1`, for which the pIC50 on UniProt P35626 (cell material: Lysate mix), on GAK (cell material: Lysate mix) and at UniProt O94804 (cell material: Lysate mix) was less than 4.52 throughout.

Take `CCNC(=O)c1cc(Nc2cc(C3CC3)[nH]n2)nc(N2CCN(Cc3ccc(S(=O)(=O)F)cc3)CC2)n1`: the pIC50 on UniProt P35626 (cell material: Lysate mix), at GAK (cell material: Lysate mix) and on UniProt O94804 (cell material: Lysate mix) was less than 4.52 in each case.
